According to ChEMBL document CHEMBL1201862, “PubChem BioAssay data set” (2004):
Calls of active or inactive are those of the source.

What was measured:
[1] = biological target: DNA dC->dU-editing enzyme APOBEC-3A (Homo sapiens, UniProt P31941); test: APOBEC3A DNA deaminase inhibitors, dose response, biochemical (AID 504722); type: functional
Beta-lactamase [2] = biological target: Beta-lactamase (Salmonella choleraesuis (strain SC-B67), UniProt Q5J463); test: Epi-absorbance-based counterscreen for selective VIM-2 inhibitors: dose response biochemical high throughput screening assay to identify inhibitors of TEM-1 serine-beta-lactamase.
Beta-lactamase [3] = biological target: T1, Beta-lactamase (Pseudomonas aeruginosa, UniProt Q79MP6); test: IMP-1 metallo-beta-lactamase inhibitors, dose response, selectivity assay for VIM-2 inhibitor project, biochemical, epi-absorbance (AID 1920)
[4] = inhibitors of firefly luciferase expression or activity, dose response, H4 neuroglioma cells, luminescence (AID 1990); type: functional, cell-based
[5] = inhibitors of SNCA 5'UTR-driven reporter translation, confirmation, H4 neuroglioma cells, luminescence (AID 1988); type: functional, cell-based
[6] = Luminescence Cell-Based Dose Response HTS to Identify Inhibitors of 5'UTR Stem-Loop Driven Prion Protein mRNA Translation in H4 Neuroglioblastoma Cells. [Related pubchem assays: 1827 (Project Summary), 1813 (Primary HTS)]; type: functional
[7] = biological target: DNA dC->dU-editing enzyme APOBEC-3G (Homo sapiens, UniProt Q9HC16); test: Dose Response confirmation of small molecule APOBEC3G DNA Deaminase Inhibitors via a fluorescence-based single-stranded DNA deaminase assay. [Related pubchem assays (depositor defined):AID493012, AID493028]; type: functional
Beta-lactamase [8] = biological target: T1, Beta-lactamase; test: […] counterscreen for selective VIM-2 inhibitors: dose response biochemical high throughput screening assay to identify inhibitors of IMP-1 metallo-beta-lactamase.
Vero = test: Vero cell toxicity, dose response, cytotoxicity control, plate reader, cherry-pick samples (AID 687020); type: functional, cell-based; details: Chlorocebus sabaeus
Protein Wnt-3a = Protein Wnt-3a (Mus musculus, UniProt P27467); test: Wnt3a-driven reporter signaling inhibition, dose response, selectivity assay for Gli-SUFU antagonist project, Wnt-LIGHT cells, luminescence (AID 651570); type: functional; details: read-out: IC50_Mean;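 note: Wnt-LIGHT reporter cells stimulated with conditioned medium from Wnt3a-producing cells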
[9] = biological target: Arf-GAP with SH3 domain, ANK repeat and PH domain-containing protein 1 (Homo sapiens, UniProt Q9ULH1); type: functional;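 note: biochemical fluorescence polarization dose–response screen measuring inhibition of ASAP1; ASAP1 GAP domain stimulating GTP hydrolysis by truncated human ARF1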
[10] = biological target: T2, ATP-dependent translocase ABCB1 (Homo sapiens, UniProt P08183); test: ABCB1 efflux inhibitor potency, dose response, Jurkat-DNR cells, JC-1, flow cytometry, set 2 (AID 504569); type: functional; details: read-out: EC50_MICROM_;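 note: potency of pump inhibitors that raise cellular JC-1 green fluorescence up to the nicardipine level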
[11] = biological target: T2, ATP-dependent translocase ABCB1; test: ABCG2 efflux pump inhibitor potency, dose response, Ig-MXP3 cells, JC-1, flow cytometry, set 2 (AID 504566); type: functional; details: read-out: EC50_MICROM_;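 note: flow cytometry median green fluorescence of retained JC-1 dye; potency of efflux pump inhibition measured as rising substrate retention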
[12] = biological target: T3, Adenosylmethionine-8-amino-7-oxononanoate aminotransferase (Mycobacterium tuberculosis, UniProt P9WQ81); test: Mycobacterium tuberculosis BioA enzyme inhibitor Measured in Biochemical System Using Plate Reader - 2163-02_Inhibitor_Dose_CherryPick_Activity.; type: functional, Mycobacterium tuberculosis UT205
T3 sequence (P9WQ81 whole entry): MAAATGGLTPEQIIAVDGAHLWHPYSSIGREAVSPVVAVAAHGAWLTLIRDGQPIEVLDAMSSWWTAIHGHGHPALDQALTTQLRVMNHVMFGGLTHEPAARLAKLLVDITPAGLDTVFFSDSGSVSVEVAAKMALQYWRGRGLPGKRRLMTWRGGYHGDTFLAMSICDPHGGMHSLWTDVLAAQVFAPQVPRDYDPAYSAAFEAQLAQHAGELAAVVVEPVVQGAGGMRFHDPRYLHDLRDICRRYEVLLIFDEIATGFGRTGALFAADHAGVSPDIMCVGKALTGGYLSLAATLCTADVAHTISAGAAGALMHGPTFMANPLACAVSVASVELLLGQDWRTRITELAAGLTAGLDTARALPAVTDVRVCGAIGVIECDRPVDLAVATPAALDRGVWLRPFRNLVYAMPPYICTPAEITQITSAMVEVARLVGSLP

[13] = cytotoxicity in HEK293 cells, dose response, cytotoxicity control, cell-based, plate reader, cherry-pick (AID 651899); type: functional
[14] = biological target: T4, Nuclear receptor subfamily 0 group B member 1 (Homo sapiens, UniProt P51843); type: functional, cell-based;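 note: HEK293T cells transfected with SF-1 and DAX-1 plus StAR promoter luciferase reporter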
T4 sequence (P51843 whole entry): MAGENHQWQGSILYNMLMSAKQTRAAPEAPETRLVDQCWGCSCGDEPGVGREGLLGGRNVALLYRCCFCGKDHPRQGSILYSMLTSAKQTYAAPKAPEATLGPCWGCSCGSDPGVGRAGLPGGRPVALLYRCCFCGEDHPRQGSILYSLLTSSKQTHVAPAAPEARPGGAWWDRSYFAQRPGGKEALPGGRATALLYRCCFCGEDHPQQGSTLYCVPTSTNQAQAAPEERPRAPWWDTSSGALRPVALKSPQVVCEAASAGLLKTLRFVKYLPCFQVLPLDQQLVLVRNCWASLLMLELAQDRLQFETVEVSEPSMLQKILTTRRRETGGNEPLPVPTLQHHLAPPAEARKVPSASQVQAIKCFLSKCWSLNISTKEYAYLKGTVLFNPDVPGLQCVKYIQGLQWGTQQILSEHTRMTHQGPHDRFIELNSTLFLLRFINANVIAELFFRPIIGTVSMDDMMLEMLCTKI

cells = type: functional, cell-based
Genome polyprotein = Genome polyprotein (dengue virus type 2, UniProt P29990); test: Dengue-2 NS5 methyltransferase inhibitors, primary screen, biochemical, confirmation dose response (AID 588689); type: functional
Caspase-7 = Caspase-7 (Homo sapiens, UniProt P55210); test: human caspase-7 inhibitors, dose response, selectivity assay for caspase-6 inhibitor project, biochemical, DEVD-R110 fluorescence, cherry-pick (AID 743295)
Aminopeptidase N = biological target: T5, Aminopeptidase N (Plasmodium falciparum FcB1/Columbia, UniProt O96935); test: P. falciparum M1AAP inhibitors, biochemical, fluorogenic H-Leu-NHMec substrate, 1536-well (AID 1445); set-up: species or system Plasmodium falciparum 3D7, 3D7
T5 sequence (O96935 whole entry): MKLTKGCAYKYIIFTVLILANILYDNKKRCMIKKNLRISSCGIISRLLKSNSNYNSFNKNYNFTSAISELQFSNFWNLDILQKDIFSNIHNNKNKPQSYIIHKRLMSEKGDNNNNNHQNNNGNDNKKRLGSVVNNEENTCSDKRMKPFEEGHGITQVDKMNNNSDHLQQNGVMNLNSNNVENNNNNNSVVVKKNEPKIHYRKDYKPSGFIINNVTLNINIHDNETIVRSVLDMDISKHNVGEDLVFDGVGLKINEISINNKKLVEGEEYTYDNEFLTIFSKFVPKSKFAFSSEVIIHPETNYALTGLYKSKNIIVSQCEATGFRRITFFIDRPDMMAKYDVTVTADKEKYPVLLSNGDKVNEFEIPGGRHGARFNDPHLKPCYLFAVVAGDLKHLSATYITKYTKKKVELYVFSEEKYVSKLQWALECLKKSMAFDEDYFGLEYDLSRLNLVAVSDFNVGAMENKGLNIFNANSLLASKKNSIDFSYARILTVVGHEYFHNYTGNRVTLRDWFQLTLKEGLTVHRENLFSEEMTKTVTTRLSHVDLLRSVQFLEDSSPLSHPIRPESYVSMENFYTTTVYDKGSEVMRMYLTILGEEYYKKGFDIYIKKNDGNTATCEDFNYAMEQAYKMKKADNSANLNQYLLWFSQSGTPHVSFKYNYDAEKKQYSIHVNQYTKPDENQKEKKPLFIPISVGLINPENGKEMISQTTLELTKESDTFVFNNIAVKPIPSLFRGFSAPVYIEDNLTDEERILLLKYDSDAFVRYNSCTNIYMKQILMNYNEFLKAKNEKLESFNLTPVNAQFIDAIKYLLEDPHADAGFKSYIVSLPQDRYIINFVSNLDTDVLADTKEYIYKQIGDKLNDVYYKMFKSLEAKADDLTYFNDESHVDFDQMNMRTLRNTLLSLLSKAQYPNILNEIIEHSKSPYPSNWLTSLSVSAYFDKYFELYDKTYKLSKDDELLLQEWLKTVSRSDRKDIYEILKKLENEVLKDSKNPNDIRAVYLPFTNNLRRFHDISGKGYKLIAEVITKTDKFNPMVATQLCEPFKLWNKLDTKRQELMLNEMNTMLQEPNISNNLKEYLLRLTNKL

[15] = biological target: T6, Small ubiquitin-related modifier 1 (Homo sapiens, UniProt P63165); test: inhibitors of SUMO1 peptide binding, dose response, biochemical, fluorescence polarization, uHTS hits (AID 624382); type: functional; details: read-out: IC50_Mean
Caspase-8 = Caspase-8 (Homo sapiens, UniProt Q14790); test: caspase-8 inhibition counter-screen, dose response, selectivity assay for caspase-6 inhibitor project, biochemical, Z-IETD-R110 fluorescence, cherry-picked samples (AID 743294)
[16] = biological target: T6, Small ubiquitin-related modifier 1; test: inhibitors of SUMO1 partner interactions, dose response, biochemical, FRET (AID 624383); type: functional; details: read-out: IC50_Mean
Caspase-6 = biological target: T7, Caspase-6 (Homo sapiens, UniProt P55212); test: human caspase-6 inhibitors, dose response, biochemical, VEID-R110 fluorescence, cherry-pick (AID 720632)
T7 sequence (P55212 whole entry): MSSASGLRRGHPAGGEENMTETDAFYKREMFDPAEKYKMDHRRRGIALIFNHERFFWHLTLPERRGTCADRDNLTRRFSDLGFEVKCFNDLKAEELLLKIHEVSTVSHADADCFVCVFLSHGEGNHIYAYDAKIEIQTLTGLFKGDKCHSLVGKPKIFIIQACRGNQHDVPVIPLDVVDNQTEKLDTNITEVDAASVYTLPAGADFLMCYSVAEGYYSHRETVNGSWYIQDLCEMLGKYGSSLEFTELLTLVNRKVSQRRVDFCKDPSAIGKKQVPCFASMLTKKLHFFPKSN

T1 sequence (Q79MP6 whole entry): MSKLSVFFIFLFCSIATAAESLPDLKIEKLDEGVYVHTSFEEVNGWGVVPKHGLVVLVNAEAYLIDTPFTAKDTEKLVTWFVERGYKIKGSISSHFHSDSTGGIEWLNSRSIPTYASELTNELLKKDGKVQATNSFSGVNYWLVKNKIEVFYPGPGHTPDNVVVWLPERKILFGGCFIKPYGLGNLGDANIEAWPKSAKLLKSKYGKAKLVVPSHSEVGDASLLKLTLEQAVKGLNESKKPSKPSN
T6 sequence (P63165 whole entry): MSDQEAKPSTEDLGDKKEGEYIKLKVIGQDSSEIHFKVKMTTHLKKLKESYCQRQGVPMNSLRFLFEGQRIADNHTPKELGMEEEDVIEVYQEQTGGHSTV
T2 sequence (P08183 whole entry): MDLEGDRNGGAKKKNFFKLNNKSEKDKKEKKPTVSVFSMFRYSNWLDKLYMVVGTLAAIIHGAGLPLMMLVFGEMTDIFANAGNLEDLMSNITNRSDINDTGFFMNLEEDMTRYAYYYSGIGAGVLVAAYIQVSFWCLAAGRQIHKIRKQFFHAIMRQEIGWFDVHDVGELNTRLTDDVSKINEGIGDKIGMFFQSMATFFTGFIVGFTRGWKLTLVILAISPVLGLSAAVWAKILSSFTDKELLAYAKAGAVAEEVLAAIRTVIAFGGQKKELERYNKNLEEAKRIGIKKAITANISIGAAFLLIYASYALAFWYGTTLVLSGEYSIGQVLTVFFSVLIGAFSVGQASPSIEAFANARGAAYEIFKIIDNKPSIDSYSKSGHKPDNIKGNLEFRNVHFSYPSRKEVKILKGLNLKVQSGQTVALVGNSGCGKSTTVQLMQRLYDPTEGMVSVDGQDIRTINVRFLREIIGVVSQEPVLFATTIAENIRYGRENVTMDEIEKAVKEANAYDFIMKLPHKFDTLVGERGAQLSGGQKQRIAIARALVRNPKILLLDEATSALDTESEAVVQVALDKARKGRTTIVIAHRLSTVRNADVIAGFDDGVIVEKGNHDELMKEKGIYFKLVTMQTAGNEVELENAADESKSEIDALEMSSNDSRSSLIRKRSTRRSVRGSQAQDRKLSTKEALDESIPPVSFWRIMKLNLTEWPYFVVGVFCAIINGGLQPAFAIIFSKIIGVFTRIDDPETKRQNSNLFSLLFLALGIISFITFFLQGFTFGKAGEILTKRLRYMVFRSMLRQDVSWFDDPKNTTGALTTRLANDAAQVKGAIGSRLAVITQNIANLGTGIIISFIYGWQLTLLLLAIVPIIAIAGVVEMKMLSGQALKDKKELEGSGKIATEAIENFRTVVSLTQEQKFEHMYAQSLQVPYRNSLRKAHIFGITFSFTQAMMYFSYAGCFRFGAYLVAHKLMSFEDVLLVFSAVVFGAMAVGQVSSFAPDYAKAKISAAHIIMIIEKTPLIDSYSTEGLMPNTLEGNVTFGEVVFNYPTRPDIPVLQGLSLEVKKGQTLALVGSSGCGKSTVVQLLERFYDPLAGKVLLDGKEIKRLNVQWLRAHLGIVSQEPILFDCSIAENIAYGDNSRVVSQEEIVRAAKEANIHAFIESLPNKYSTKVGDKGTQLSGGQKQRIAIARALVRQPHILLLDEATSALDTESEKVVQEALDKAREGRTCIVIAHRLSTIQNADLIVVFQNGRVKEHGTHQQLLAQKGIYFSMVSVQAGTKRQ
Chain of Arf-GAP with SH3 domain, ANK repeat and PH domain-containing protein 1 (Q9ULH1 whole entry, the tested form may be a part): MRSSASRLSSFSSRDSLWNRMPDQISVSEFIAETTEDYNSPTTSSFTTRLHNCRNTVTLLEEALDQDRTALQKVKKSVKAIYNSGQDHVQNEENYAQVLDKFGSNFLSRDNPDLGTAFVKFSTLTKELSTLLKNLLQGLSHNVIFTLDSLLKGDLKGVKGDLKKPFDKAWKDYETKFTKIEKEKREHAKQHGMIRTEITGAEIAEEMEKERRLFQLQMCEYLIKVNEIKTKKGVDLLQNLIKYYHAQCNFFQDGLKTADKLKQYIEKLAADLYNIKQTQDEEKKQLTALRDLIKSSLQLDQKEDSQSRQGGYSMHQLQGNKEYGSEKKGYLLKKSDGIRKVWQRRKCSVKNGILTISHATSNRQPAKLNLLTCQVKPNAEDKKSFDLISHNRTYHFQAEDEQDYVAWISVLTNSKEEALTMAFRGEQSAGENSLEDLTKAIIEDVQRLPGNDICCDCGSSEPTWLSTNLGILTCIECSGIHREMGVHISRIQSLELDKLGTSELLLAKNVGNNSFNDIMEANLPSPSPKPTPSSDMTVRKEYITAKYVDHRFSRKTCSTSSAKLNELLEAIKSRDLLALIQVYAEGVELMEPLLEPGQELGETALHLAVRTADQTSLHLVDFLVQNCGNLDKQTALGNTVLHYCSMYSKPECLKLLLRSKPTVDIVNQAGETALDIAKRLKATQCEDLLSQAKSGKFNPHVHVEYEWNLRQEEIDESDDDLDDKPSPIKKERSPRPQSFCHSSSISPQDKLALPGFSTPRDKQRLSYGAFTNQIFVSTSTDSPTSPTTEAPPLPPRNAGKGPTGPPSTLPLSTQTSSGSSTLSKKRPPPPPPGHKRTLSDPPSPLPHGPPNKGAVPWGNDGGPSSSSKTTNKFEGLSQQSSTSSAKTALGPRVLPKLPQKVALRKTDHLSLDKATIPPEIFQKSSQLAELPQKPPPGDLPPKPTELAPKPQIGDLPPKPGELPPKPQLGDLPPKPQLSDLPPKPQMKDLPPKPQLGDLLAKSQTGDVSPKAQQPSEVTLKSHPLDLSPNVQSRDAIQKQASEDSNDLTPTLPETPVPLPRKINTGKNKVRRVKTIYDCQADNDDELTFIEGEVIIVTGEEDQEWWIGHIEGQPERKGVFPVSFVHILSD
Chain of Genome polyprotein (P29990 2492-3391 limits assumed): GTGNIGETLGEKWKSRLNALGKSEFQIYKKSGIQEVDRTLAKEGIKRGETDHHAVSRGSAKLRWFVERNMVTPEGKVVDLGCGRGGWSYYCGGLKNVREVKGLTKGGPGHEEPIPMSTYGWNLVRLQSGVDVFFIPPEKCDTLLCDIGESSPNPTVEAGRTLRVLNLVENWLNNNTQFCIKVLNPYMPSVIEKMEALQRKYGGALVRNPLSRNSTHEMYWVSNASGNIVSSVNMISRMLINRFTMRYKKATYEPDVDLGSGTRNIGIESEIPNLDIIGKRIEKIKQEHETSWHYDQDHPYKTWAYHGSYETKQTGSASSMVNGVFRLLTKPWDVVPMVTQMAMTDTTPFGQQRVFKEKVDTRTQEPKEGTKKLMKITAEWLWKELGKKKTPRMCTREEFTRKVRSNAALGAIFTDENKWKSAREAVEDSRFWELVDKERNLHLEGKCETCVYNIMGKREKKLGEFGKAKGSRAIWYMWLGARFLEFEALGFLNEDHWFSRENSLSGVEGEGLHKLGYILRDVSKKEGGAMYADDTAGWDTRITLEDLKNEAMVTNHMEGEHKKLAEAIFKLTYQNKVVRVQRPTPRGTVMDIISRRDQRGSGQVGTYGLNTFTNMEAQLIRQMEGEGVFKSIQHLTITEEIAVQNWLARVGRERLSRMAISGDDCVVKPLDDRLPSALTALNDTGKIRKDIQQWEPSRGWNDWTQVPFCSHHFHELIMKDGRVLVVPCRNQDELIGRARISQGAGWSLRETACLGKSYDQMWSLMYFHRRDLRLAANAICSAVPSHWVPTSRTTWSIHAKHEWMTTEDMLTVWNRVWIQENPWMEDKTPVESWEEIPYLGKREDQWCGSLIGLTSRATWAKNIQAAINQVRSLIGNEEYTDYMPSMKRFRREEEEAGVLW
Chain of DNA dC->dU-editing enzyme APOBEC-3G (Q9HC16 whole entry): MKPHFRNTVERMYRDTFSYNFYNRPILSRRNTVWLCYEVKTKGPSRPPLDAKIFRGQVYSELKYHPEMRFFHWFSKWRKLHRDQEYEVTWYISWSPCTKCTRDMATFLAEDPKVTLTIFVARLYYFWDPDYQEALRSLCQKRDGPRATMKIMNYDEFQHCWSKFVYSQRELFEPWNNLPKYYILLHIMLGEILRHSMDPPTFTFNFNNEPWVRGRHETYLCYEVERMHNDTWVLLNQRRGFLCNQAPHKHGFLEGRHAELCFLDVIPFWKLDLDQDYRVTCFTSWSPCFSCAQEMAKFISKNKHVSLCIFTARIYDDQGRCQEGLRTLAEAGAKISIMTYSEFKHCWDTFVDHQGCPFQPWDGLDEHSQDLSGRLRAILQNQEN
Chain of Protein Wnt-3a (P27467 whole entry, the tested form may be a part): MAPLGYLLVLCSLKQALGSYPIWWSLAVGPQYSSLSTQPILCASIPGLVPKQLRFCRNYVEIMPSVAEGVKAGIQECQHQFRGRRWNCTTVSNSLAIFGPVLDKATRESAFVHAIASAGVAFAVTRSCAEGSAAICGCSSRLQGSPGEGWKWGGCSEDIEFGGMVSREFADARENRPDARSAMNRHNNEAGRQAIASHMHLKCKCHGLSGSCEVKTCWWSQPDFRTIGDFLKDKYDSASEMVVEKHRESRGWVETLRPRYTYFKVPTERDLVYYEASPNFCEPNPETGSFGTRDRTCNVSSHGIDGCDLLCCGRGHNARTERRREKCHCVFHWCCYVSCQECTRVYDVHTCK
Chain of Caspase-8 (Q14790 217-374 limits assumed): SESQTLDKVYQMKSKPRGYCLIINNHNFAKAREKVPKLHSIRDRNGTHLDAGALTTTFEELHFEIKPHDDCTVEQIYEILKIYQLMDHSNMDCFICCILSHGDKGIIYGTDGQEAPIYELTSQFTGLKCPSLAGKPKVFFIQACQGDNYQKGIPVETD
Chain of Caspase-8 (Q14790 385-479 limits assumed): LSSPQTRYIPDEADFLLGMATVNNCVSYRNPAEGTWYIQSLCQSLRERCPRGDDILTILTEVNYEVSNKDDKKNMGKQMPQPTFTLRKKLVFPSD
Chain of Caspase-7 (P55210 24-198 limits assumed): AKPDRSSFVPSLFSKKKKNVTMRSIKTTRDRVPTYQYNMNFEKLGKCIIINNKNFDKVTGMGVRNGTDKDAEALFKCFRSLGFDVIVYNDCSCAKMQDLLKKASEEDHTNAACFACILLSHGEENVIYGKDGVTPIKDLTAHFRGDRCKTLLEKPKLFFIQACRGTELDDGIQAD
Chain of Caspase-7 (P55210 207-303 limits assumed): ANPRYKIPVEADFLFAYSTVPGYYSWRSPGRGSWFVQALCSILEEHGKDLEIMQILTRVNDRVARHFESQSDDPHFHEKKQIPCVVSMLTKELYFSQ

Sc1nnc(-c2ccccc2)n1C1C=CCCC1 (centres undefined)
IC50 [1]: > 100 µM (inactive)
IC50 (Beta-lactamase [2]): > 59.6 µM (inactive)
IC50 (Beta-lactamase [3]): > 59.6 µM (inactive)
EC50 [4]: > 120 µM (not active)
EC50 [5]: > 120 µM (not active)
EC50 [6]: 104 µM (active)
IC50 [7]: 5.37 µM (active)
IC50 (Beta-lactamase [8]): > 59.6 µM (inactive)

Cc1c(CCC(=O)NCCCN2CCCC2=O)c(=O)oc2cc(O)ccc12
AC50 (Vero): 30.1 µM (active)

O=C(/C=C/c1ccco1)Nc1ccc(-c2nc3ccccc3[nH]2)cc1
IC50 (Protein Wnt-3a): 14.6 µM (active)
IC50 [9]: 14 µM (inactive)

O=C(c1cccnc1)N1CCN(c2cc(-c3ccccc3)nc3cc(-c4cccc(Cl)c4)nn23)CC1
EC50 [10]: 0.52 µM (active)
EC50 [11]: 0.37 µM (active)

COc1ccccc1S(=O)(=O)N1CC[C@@H]2[C@H](CO)Nc3ccc(-c4ccccc4)cc3[C@@H]21
AC50 [12]: 16.5 µM (active)
AC50 [13]: 19.3 µM (active)

COc1cc(OC)c2c(=O)cc(-c3ccccc3)oc2c1 [CHRYSIN DIMETHYL ETHER]
IC50 [14]: > 67.6 µM (inactive)
IC50 (cells): > 67.6 µM (inactive)

COc1cc(C)c2c(c1C=O)Oc1c(c(C)c(O)c3c1C(O)OC3=O)OC2=O (centres undefined) [STICTIC ACID]
IC50 (Genome polyprotein): 71.2 µM (active)
AC50 (Caspase-7): 44.3 µM (active)
IC50 (Aminopeptidase N): 27.3 µM (active)
IC50 [15]: > 66.6 µM (inactive)
AC50 (Caspase-8): > 70 µM (inactive)
IC50 [16]: 7.69 µM (active)
AC50 (Caspase-6): 0.817 µM (active)
